Literature values in article PMC12042267, “Expanding the Family of Monosubstituted 15-Membered Pyridine-Based Macrocyclic Ligands for Mn(II) Complexation in the Context of MRI” (Inorganic Chemistry, 2025).
Like-named read-outs stand apart in the source and are kept apart here. Marks after values point to notes of the source that are not given here.

What was measured:
[1] = Zn(II), cited from earlier work
[2] = Mn(II) complex, cited from earlier work; for dissociation half-life t1/2: calculated for pH 7.4
[3] = Ca(II), cited from earlier work
[4] = cited from earlier work
[5] = cited from earlier work; remark: listed apart in the source
[6] = Cu(II), cited from earlier work
[7] = cited from earlier work; for r1 (relaxivity): 20 MHz
[8] = cited from earlier work; remark: listed apart in the source
[9] = Mn(II), I = 0.15 M NaCl, 25 °C ref 21
[10] = Mn(II), I = 0.15 M NaCl, 25 °C, log KMnHL in Table 5 ref 21
[11] = pH 7.4, cMn = clig = 10^–5 M ref 21
[12] = Mn(II), I = 0.15 M NaCl, 25 °C ref 26
[13] = Mn(II), I = 0.15 M NaCl, 25 °C ref 29
[14] = Mn(II), I = 0.15 M NaCl, 25 °C ref 22

O=C(O)CN1CCNCc2cccc(n2)CN(CC(=O)O)CC1 [3,6-PC2A]
log KHML ([1]; I = 0.15 M NaCl, 25 °C ref 21): 2.36
log KML ([1]; I = 0.15 M NaCl, 25 °C ref 21): 20.37
k1 ([2]; Cu(II) transmetalation ref 21): 70 ± 1 M^–1 s^–1
k2 ([2]; Cu(II) transmetalation ref 21): (1.5 ± 0.4) × 10^5 M^–2 s^–1
k3 ([2]; Cu(II) transmetalation ref 21): (2.6 ± 0.7) × 10^–2 M^–1 s^–1
dissociation half-life t1/2 ([2]; Cu(II) ref 21): 63.2 h
log KHML ([3]; I = 0.15 M NaCl, 25 °C ref 21): 5.27
log KML ([3]; I = 0.15 M NaCl, 25 °C ref 21): 9.57
log K1^H ([4]; 1.0 M NaCl ref 21): 10.31
log K2^H ([4]; 1.0 M NaCl ref 21): 8.59
log K3^H ([4]; 1.0 M NaCl ref 21): 3.92
log K4^H ([4]; 1.0 M NaCl ref 21): 1.56
log K1^H ([4]; I = 0.15 M NaCl, 25 °C ref 21): 10.72
log K2^H ([4]; I = 0.15 M NaCl, 25 °C ref 21): 8.37
log K3^H ([4]; I = 0.15 M NaCl, 25 °C ref 21): 3.81
log K4^H ([4]; I = 0.15 M NaCl, 25 °C ref 21): 1.26
log KML [5, 9]: 15.53
log KHML [5, 10]: 3.06
pMn [5, 11]: 8.09
log KHML ([6]; I = 0.15 M NaCl, 25 °C ref 21): 2.37
log KML ([6]; I = 0.15 M NaCl, 25 °C ref 21): 24.09

O=C(O)CN1CCOCCN(CC(=O)O)Cc2cccc(n2)C1 [3,9-OPC2A]
log KHML ([1]; I = 0.15 M NaCl, 25 °C ref 26): 2.08
log KML ([1]; I = 0.15 M NaCl, 25 °C ref 26): 14.81
log KML(OH) ([1]; I = 0.15 M NaCl, 25 °C ref 26): -10.95
k0 ([2]; Cu(II) transmetalation ref 26): (8.6 ± 1.1) × 10^–6 s^–1
k1 ([2]; Cu(II) transmetalation ref 26): 2.81 ± 0.07 M^–1 s^–1
dissociation half-life t1/2 ([2]; Cu(II) ref 26): 21.9 h
log KML ([3]; I = 0.15 M NaCl, 25 °C ref 26): 8.27
log K1^H ([4]; I = 0.15 M NaCl, 25 °C ref 26): 7.73
log K2^H ([4]; I = 0.15 M NaCl, 25 °C ref 26): 7.66
log K3^H ([4]; I = 0.15 M NaCl, 25 °C ref 26): 2.13
log KML [5, 12]: 13.03
log KML(OH) [5, 12]: -11.49
pMn ([5]; pH 7.4, cMn = clig = 10^–5 M ref 26): 8.69
log KHML ([6]; I = 0.15 M NaCl, 25 °C ref 26): 1.92
log KML ([6]; I = 0.15 M NaCl, 25 °C ref 26): 18.41
log KML(OH) ([6]; I = 0.15 M NaCl, 25 °C ref 26): -10.50

O=C(O)CN1CCNCCN(CC(=O)O)Cc2cccc(n2)C1 [3,9-PC2A]
log KHML ([1]; I = 0.15 M NaCl, 25 °C ref 21): 2.74
log KML ([1]; I = 0.15 M NaCl, 25 °C ref 21): 19.49
k1 ([2]; Cu(II) transmetalation ref 21): 221 ± 5 M^–1 s^–1
k3 ([2]; Cu(II) transmetalation ref 21): (3.6 ± 0.7) × 10^–2 M^–1 s^–1
dissociation half-life t1/2 ([2]; Cu(II) ref 21): 21.0 h
log KHML ([3]; I = 0.15 M NaCl, 25 °C ref 21): 5.08
log KML ([3]; I = 0.15 M NaCl, 25 °C ref 21): 9.92
log K1^H ([4]; 0.1 M KCl ref 42): 12.50
log K2^H ([4]; 0.1 M KCl ref 42): 5.75
log K3^H ([4]; 0.1 M KCl ref 42): 3.28
log K4^H ([4]; 0.1 M KCl ref 42): 2.38
log K1^H ([4]; I = 0.15 M NaCl, 25 °C ref 21): 12.25
log K2^H ([4]; I = 0.15 M NaCl, 25 °C ref 21): 5.97
log K3^H ([4]; I = 0.15 M NaCl, 25 °C ref 21): 3.47
log K4^H ([4]; I = 0.15 M NaCl, 25 °C ref 21): 1.99
log KML [5, 9]: 17.09
log KHML [5, 10]: 2.14
pMn [5, 11]: 8.64
log KHML ([6]; I = 0.15 M NaCl, 25 °C ref 21): 2.12
log KML ([6]; I = 0.15 M NaCl, 25 °C ref 21): 23.58

c1cc2nc(c1)CNCCOc1ccccc1OCCNC2 [15-pyN3O2Ph]
log KML ([1]; I = 0.15 M NaCl, 25 °C ref 29): 7.70
log KML(OH) ([1]; I = 0.15 M NaCl, 25 °C ref 29): -9.62
log KML ([3]; I = 0.15 M NaCl, 25 °C ref 29): 1.85
log K1^H ([4]; I = 0.15 M NaCl, 25 °C ref 29): 8.53
log K2^H ([4]; I = 0.15 M NaCl, 25 °C ref 29): 7.63
log KML [5, 13]: 5.62
log KML(OH) [5, 13]: -10.50
pMn ([5]; pH 7.4, cMn = clig = 10^–5 M ref 30): 5.04^a
log KML ([6]; I = 0.15 M NaCl, 25 °C ref 29): 13.97
log KML(OH) ([6]; I = 0.15 M NaCl, 25 °C ref 29): -8.95

c1cc2nc(c1)CNCCOCCOCCNC2 [15-pyN3O2]
log KML ([1]; 0.1 M NMe4Cl ref 28): 8.58
log KML(OH) ([1]; 0.1 M NMe4Cl ref 28): -10.31
log KML ([3]; 0.1 M NMe4Cl ref 28): 2.04
log KML(OH) ([3]; 0.1 M NMe4Cl ref 28): -11.92
log K1^H ([4]; 0.1 M NMe4Cl ref 28): 8.82
log K2^H ([4]; 0.1 M NMe4Cl ref 28): 7.80
log KML ([5]; Mn(II), 0.1 M NMe4Cl ref 28): 7.18
log KML(OH) ([5]; Mn(II), 0.1 M NMe4Cl ref 28): -11.69
pMn ([5]; pH 7.4, cMn = clig = 10^–5 M ref 28): 5.28
log KML ([6]; 0.1 M NMe4Cl ref 28): 13.91
log KML(OH) ([6]; 0.1 M NMe4Cl ref 28): -8.34
log KML(OH)2 ([6]; 0.1 M NMe4Cl ref 28): -12.57

O.O=C([O-])CN1CCOCCN(CC(=O)[O-])Cc2cccc(n2)C1.[Mn+2] [Mn(3,9-OPC2A)]
k0 ([2]; Cu(II) transmetalation ref 26): (8.6 ± 1.1) × 10^–6 s^–1
r1p298 ([7]; determined at pH 7.4 ref 26): 3.09 mM^–1 s^–1
kex^298 [8]: 5.3 ± 0.4 10^7 s^–1
ΔH^‡ [8]: 28.5 ± 1.7 kJ mol^–1

O.O.[Mn+2].c1cc2nc(c1)CNCCOc1ccccc1OCCNC2 [Mn(15-pyN3O2Ph)]
r1 (relaxivity) ([7]; 25 °C, 0.47 T ref 29): 5.16/– mM^–1 s^–1
AO/ℏ [8]: 43 10^6 rad s^–1
kex^298 [8]: 0.64 10^7 s^–1
ΔH^‡ [8]: 34.0 kJ mol^–1
ΔS^‡ [8]: –1.0 J mol^–1K^–1

O.O.[Mn+2].c1cc2nc(c1)CNCCNCCNCCNC2 [Mn(15-pyN5)]
r1 (relaxivity) ([7]; 25 °C, 0.47 T ref 28): 3.56 mM^–1 s^–1
kex^298 [8]: 6.9 ± 0.7 10^7 s^–1
ΔH^‡ [8]: 37.7 ± 4 kJ mol^–1

O.O=C([O-])CN1CCOCCOCCNCc2cccc(n2)C1.[Mn+2] [MnL1]
r1 (relaxivity) ([7]; 25 °C, 0.47 T ref 30): 2.45 mM^–1 s^–1
r1 (relaxivity) ([7]; 37 °C, 0.47 T ref 30): 2.08 mM^–1 s^–1
AO/ℏ [8]: 38.6 10^6 rad s^–1
ErH [8]: 15.0 ± 0.5 kJ mol^–1
kex^298 [8]: 0.45 ± 0.02 10^7 s^–1
ΔH^‡ [8]: 28.1 ± 2.1 kJ mol^–1
ΔS^‡ [8]: –23 ± 6 J mol^–1K^–1
Δ^2 [8]: 160 ± 10 10^18 s^–2
τrH^298 [8]: 35 ± 5 ps
τv^298 [8]: 8 ± 1 ps

O=P(O)(O)CN1CCNCc2cccc(n2)CNCC1 [PC1P]
log KHML ([1]; 0.1 M NMe4Cl ref 20): 5.19
log KML ([1]; 0.1 M NMe4Cl ref 20): 19.66
log KML(OH) ([1]; 0.1 M NMe4Cl ref 20): 12.33
log KML ([3]; 0.1 M NMe4Cl ref 20): 6.85
log K1^H ([4]; 0.1 M NMe4Cl ref 20): 11.84
log K2^H ([4]; 0.1 M NMe4Cl ref 20): 9.64
log K3^H ([4]; 0.1 M NMe4Cl ref 20): 6.23
log K4^H ([4]; 0.1 M NMe4Cl ref 20): 0.99
log KML ([5]; Mn(II), 0.1 M NMe4Cl ref 20): 14.06
log KML(OH) ([5]; Mn(II), 0.1 M NMe4Cl ref 20): -11.97
log KHML ([5]; Mn(II), 0.1 M NMe4Cl, log KMnHL in Table 5 ref 20): 5.35
pMn ([5]; pH 7.4, cMn = clig = 10^–5 M ref 20): 8.30
log KHML ([6]; 0.1 M NMe4Cl ref 20): 4.89
log KML ([6]; 0.1 M NMe4Cl ref 20): 22.63

NCCN1CCN(CC(=O)O)Cc2cccc(n2)CN(CC(=O)O)CC1 [PC2A-EA]
k1 ([2]; Cu(II) transmetalation ref 22): 0.6 M^–1 s^–1
dissociation half-life t1/2 ([2]; Cu(II) ref 22): 8000 h
log K1^H ([4]; I = 0.15 M NaCl, 25 °C ref 22): 11.34
log K2^H ([4]; I = 0.15 M NaCl, 25 °C ref 22): 8.93
log K3^H ([4]; I = 0.15 M NaCl, 25 °C ref 22): 6.91
log K4^H ([4]; I = 0.15 M NaCl, 25 °C ref 22): 1.97
log KH2ML [5, 14]: 2.50
log KML [5, 14]: 19.01
log KHML ([5]; Mn(II), I = 0.15 M NaCl, 25 °C, log KMnHL in Table 5 ref 22): 6.88
pMn ([5]; pH 7.4, cMn = clig = 10^–5 M ref 22): 9.27

O.O.O.O.O.O.[Mn+2] [[Mn(H2O)6]^2+]
r1 characteristic of free hexaaqua Mn(II) ([7]; 1.41 T, 60 MHz, 25 °C ref 46): 6.7 mM^–1 s^–1
r1 (relaxivity) ([7]; 25 °C, 0.47 T ref 54): 8.36/– mM^–1 s^–1
AO/ℏ [8]: 33.3 10^6 rad s^–1
kex^298 [8]: 2.1 10^7 s^–1
ΔH^‡ [8]: 32.9 kJ mol^–1
ΔS^‡ [8]: +5.7 J mol^–1K^–1
Δ^2 [8]: 5.6 10^18 s^–2
τrH^298 [8]: 30 ps
τv^298 [8]: 3.3 ps

O.O=C([O-])CN1CCNCc2cccc(n2)CNCC1.[Mn+2] [[Mn(PC1A)(H2O)]^+]
r1p298 ([7]; determined at pH 7.4 ref 20): 2.39 mM^–1 s^–1
kex^298 [8]: 303 ± 19 10^7 s^–1
ΔH^‡ [8]: 13.0 ± 1.6 kJ mol^–1

O.O=P([O-])([O-])CN1CCNCc2cccc(n2)CNCC1.[Mn+2] [[Mn(PC1P)(H2O)]]
r1p298 ([7]; determined at pH 7.4 ref 20): 2.84 mM^–1 s^–1
kex^298 [8]: 177 ± 9 10^7 s^–1
ΔH^‡ [8]: 14.0 ± 1.2 kJ mol^–1

O.O=C([O-])CN1CCN(Cc2ccc(-c3ccccc3)cc2)CCN(CC(=O)[O-])Cc2cccc(n2)C1.[Mn+2] [[Mn(PC2A-BP)(H2O)]]
r1p298 ([7]; determined at pH 7.4 ref 29): 4.96 mM^–1 s^–1
r1p298 ([7]; measured in the presence of HSA ref 55): 35.7 mM^–1 s^–1
kex^298 ([8]; Table 7, footnote h ref 29): 6.3 ± 0.2 10^7 s^–1
ΔH^‡ ([8]; Table 7, footnote h ref 29): 35.7 ± 0.1 kJ mol^–1

NCCN1CCN(CC(=O)[O-])Cc2cccc(n2)CN(CC(=O)[O-])CC1.O.[Mn+2] [[Mn(PC2A-EA)(H2O)]]
r1p298 ([7]; 298 K and 0.47 T, pH 6.0 ref 22): 2.1 mM^–1 s^–1
r1p298 ([7]; 298 K and 0.47 T, pH 7.4 ref 22): 3.5 mM^–1 s^–1
kex^298 [8]: 4.0 ± 0.2 10^7 s^–1
